Reference: patent US20260206755A1, “COMPOUNDS AND COMPOSITIONS HAVING KNOCK-DOWN OR BLOOD FEED INHIBITION ACTIVITY AGAINST INSECT PESTS” (priority 2017, published 2026)

System: Anopheles stephensi
Assay: Anopheles stephensi treated well plate contact test: knockdown and mortality
Assay type: in vivo
Settings: test compound 0.2 ppm plus 2 ppm TFNA-AM, after 24 hours
Procedure, shortened: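 Well surfaces coated with ethanol solution of compound at a defined concentration, alone or with 2 ppm TFNA-AM, then dried. Five non-blood-fed 2–5-day-old adult females per well, fed 10% sucrose; knockdown scored at 1 hour, mortality at 24 and 48 hours, replicate means reported.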

SMILES	mortality % 24, with TFNA-AM
O=C1C=C(N(Cc2ccc(Cl)nc2)CC(F)F)CO1 [Flupyradifurone]	10%
CO/C=C(/C(=O)OC)c1ccccc1COc1cccc(C(F)(F)F)n1 [Picoxystrobin]	30%

Same assay, conditions: test compound 0.2 ppm plus 2 ppm TFNA-AM, after 48 hours

SMILES	mortality % 48, with TFNA-AM
O=C1C=C(N(Cc2ccc(Cl)nc2)CC(F)F)CO1 [Flupyradifurone]	0%
CO/C=C(/C(=O)OC)c1ccccc1COc1cccc(C(F)(F)F)n1 [Picoxystrobin]	20%

Same assay, conditions: test compound 0.2 ppm plus 2 ppm TFNA-AM, knockdown after 1 hour

SMILES	Knock Down, with TFNA-AM
O=C1C=C(N(Cc2ccc(Cl)nc2)CC(F)F)CO1 [Flupyradifurone]	100%
CO/C=C(/C(=O)OC)c1ccccc1COc1cccc(C(F)(F)F)n1 [Picoxystrobin]	100%

Same assay, conditions: test compound 0.2 ppm, without TFNA-AM, after 24 hours

SMILES	mortality % 24, without TFNA-AM
O=C1C=C(N(Cc2ccc(Cl)nc2)CC(F)F)CO1 [Flupyradifurone]	0%
CO/C=C(/C(=O)OC)c1ccccc1COc1cccc(C(F)(F)F)n1 [Picoxystrobin]	0%

Same assay, conditions: test compound 0.2 ppm, without TFNA-AM, after 48 hours

SMILES	mortality % 48, without TFNA-AM
O=C1C=C(N(Cc2ccc(Cl)nc2)CC(F)F)CO1 [Flupyradifurone]	0%
CO/C=C(/C(=O)OC)c1ccccc1COc1cccc(C(F)(F)F)n1 [Picoxystrobin]	0%

Same assay, conditions: test compound 0.2 ppm, without TFNA-AM, knockdown after 1 hour

SMILES	Knock Down, without TFNA-AM
O=C1C=C(N(Cc2ccc(Cl)nc2)CC(F)F)CO1 [Flupyradifurone]	0%
CO/C=C(/C(=O)OC)c1ccccc1COc1cccc(C(F)(F)F)n1 [Picoxystrobin]	0%

Same assay, conditions: test compound 2 ppm plus 2 ppm TFNA-AM, after 24 hours

SMILES	mortality % 24, with TFNA-AM
O=C1C=C(N(Cc2ccc(Cl)nc2)CC(F)F)CO1 [Flupyradifurone]	20%
CO/C=C(/C(=O)OC)c1ccccc1COc1cccc(C(F)(F)F)n1 [Picoxystrobin]	80%

Same assay, conditions: test compound 2 ppm plus 2 ppm TFNA-AM, after 48 hours

SMILES	mortality % 48, with TFNA-AM
O=C1C=C(N(Cc2ccc(Cl)nc2)CC(F)F)CO1 [Flupyradifurone]	20%
CO/C=C(/C(=O)OC)c1ccccc1COc1cccc(C(F)(F)F)n1 [Picoxystrobin]	80%

Same assay, conditions: test compound 2 ppm plus 2 ppm TFNA-AM, knockdown after 1 hour

SMILES	Knock Down, with TFNA-AM
O=C1C=C(N(Cc2ccc(Cl)nc2)CC(F)F)CO1 [Flupyradifurone]	100%
CO/C=C(/C(=O)OC)c1ccccc1COc1cccc(C(F)(F)F)n1 [Picoxystrobin]	100%

Same assay, conditions: test compound 2 ppm, without TFNA-AM, after 24 hours

SMILES	mortality % 24, without TFNA-AM
O=C1C=C(N(Cc2ccc(Cl)nc2)CC(F)F)CO1 [Flupyradifurone]	0%
CO/C=C(/C(=O)OC)c1ccccc1COc1cccc(C(F)(F)F)n1 [Picoxystrobin]	50%

Same assay, conditions: test compound 2 ppm, without TFNA-AM, after 48 hours

SMILES	mortality % 48, without TFNA-AM
O=C1C=C(N(Cc2ccc(Cl)nc2)CC(F)F)CO1 [Flupyradifurone]	0%
CO/C=C(/C(=O)OC)c1ccccc1COc1cccc(C(F)(F)F)n1 [Picoxystrobin]	0%

Same assay, conditions: test compound 2 ppm, without TFNA-AM, knockdown after 1 hour

SMILES	Knock Down, without TFNA-AM
O=C1C=C(N(Cc2ccc(Cl)nc2)CC(F)F)CO1 [Flupyradifurone]	0%
CO/C=C(/C(=O)OC)c1ccccc1COc1cccc(C(F)(F)F)n1 [Picoxystrobin]	0%

Same assay, conditions: test compound 20 ppm plus 2 ppm TFNA-AM, after 24 hours

SMILES	mortality % 24, with TFNA-AM
O=C1C=C(N(Cc2ccc(Cl)nc2)CC(F)F)CO1 [Flupyradifurone]	50%
CO/C=C(/C(=O)OC)c1ccccc1COc1cccc(C(F)(F)F)n1 [Picoxystrobin]	100%

Same assay, conditions: test compound 20 ppm plus 2 ppm TFNA-AM, after 48 hours

SMILES	mortality % 48, with TFNA-AM
O=C1C=C(N(Cc2ccc(Cl)nc2)CC(F)F)CO1 [Flupyradifurone]	60%
CO/C=C(/C(=O)OC)c1ccccc1COc1cccc(C(F)(F)F)n1 [Picoxystrobin]	100%

Same assay, conditions: test compound 20 ppm plus 2 ppm TFNA-AM, knockdown after 1 hour

SMILES	Knock Down, with TFNA-AM
O=C1C=C(N(Cc2ccc(Cl)nc2)CC(F)F)CO1 [Flupyradifurone]	100%
CO/C=C(/C(=O)OC)c1ccccc1COc1cccc(C(F)(F)F)n1 [Picoxystrobin]	100%

Same assay, conditions: test compound 20 ppm, without TFNA-AM, after 24 hours

SMILES	mortality % 24, without TFNA-AM
O=C1C=C(N(Cc2ccc(Cl)nc2)CC(F)F)CO1 [Flupyradifurone]	0%
CO/C=C(/C(=O)OC)c1ccccc1COc1cccc(C(F)(F)F)n1 [Picoxystrobin]	90%

Same assay, conditions: test compound 20 ppm, without TFNA-AM, after 48 hours

SMILES	mortality % 48, without TFNA-AM
O=C1C=C(N(Cc2ccc(Cl)nc2)CC(F)F)CO1 [Flupyradifurone]	10%
CO/C=C(/C(=O)OC)c1ccccc1COc1cccc(C(F)(F)F)n1 [Picoxystrobin]	100%

Same assay, conditions: test compound 20 ppm, without TFNA-AM, knockdown after 1 hour

SMILES	Knock Down, without TFNA-AM
O=C1C=C(N(Cc2ccc(Cl)nc2)CC(F)F)CO1 [Flupyradifurone]	0%
CO/C=C(/C(=O)OC)c1ccccc1COc1cccc(C(F)(F)F)n1 [Picoxystrobin]	30%

Same assay, conditions: test compound 200 ppm plus 2 ppm TFNA-AM, after 24 hours

SMILES	mortality % 24, with TFNA-AM
O=C1C=C(N(Cc2ccc(Cl)nc2)CC(F)F)CO1 [Flupyradifurone]	70%
CO/C=C(/C(=O)OC)c1ccccc1COc1cccc(C(F)(F)F)n1 [Picoxystrobin]	100%

Same assay, conditions: test compound 200 ppm plus 2 ppm TFNA-AM, after 48 hours

SMILES	mortality % 48, with TFNA-AM
O=C1C=C(N(Cc2ccc(Cl)nc2)CC(F)F)CO1 [Flupyradifurone]	90%
CO/C=C(/C(=O)OC)c1ccccc1COc1cccc(C(F)(F)F)n1 [Picoxystrobin]	100%

Same assay, conditions: test compound 200 ppm plus 2 ppm TFNA-AM, knockdown after 1 hour

SMILES	Knock Down, with TFNA-AM
O=C1C=C(N(Cc2ccc(Cl)nc2)CC(F)F)CO1 [Flupyradifurone]	100%
CO/C=C(/C(=O)OC)c1ccccc1COc1cccc(C(F)(F)F)n1 [Picoxystrobin]	100%

Same assay, conditions: test compound 200 ppm, without TFNA-AM, after 24 hours

SMILES	mortality % 24, without TFNA-AM
O=C1C=C(N(Cc2ccc(Cl)nc2)CC(F)F)CO1 [Flupyradifurone]	20%
CO/C=C(/C(=O)OC)c1ccccc1COc1cccc(C(F)(F)F)n1 [Picoxystrobin]	100%

Same assay, conditions: test compound 200 ppm, without TFNA-AM, after 48 hours

SMILES	mortality % 48, without TFNA-AM
O=C1C=C(N(Cc2ccc(Cl)nc2)CC(F)F)CO1 [Flupyradifurone]	30%
CO/C=C(/C(=O)OC)c1ccccc1COc1cccc(C(F)(F)F)n1 [Picoxystrobin]	100%

Same assay, conditions: test compound 200 ppm, without TFNA-AM, knockdown after 1 hour, adult females

SMILES	Knock Down, without TFNA-AM
O=C1C=C(N(Cc2ccc(Cl)nc2)CC(F)F)CO1 [Flupyradifurone]	0%
CO/C=C(/C(=O)OC)c1ccccc1COc1cccc(C(F)(F)F)n1 [Picoxystrobin]	100%
